The source of these data is PMC5424463, “A strategy based on nucleotide specificity leads to a subfamily-selective and cell-active inhibitor of N ^6-methyladenosine demethylase FTO” (Chemical Science, 2014).

The test deals with T1, PHD2 (Homo sapiens, UniProt Q9GZT9).
T1 construct: Full length human PHD2 (fused to a MYC/DDK tag at C-terminal); purchased Origene Technology, USA
Briefly: MALDI-based inhibition assay for PHD2. It is filed as biochemical. Conditions: 19-mer peptide substrate. On the procedure:
IC50s were then calculated from the variation in percentage demethylation at different inhibitor concentrations, using nonlinear regression, with normalized dose-response fit on […]
MALDI-based inhibition assays for FTO and ALKBH5
The assay was modified from previously reported method.[5] An 8-mer m6A-ssDNA substrate with the sequence 5’-TCA(m6A)CAGC-3’ (Yale University, W.M. Keck Foundation Biotechnology Resource Laboratory) was used in this inhibition assay. The assay was performed in triplicate for each inhibitor, in a final reaction volume of 25 µL. Reaction consisted of FTO (2 µM) or ALKBH5 (4 µM), 2OG (150 µM), (NH4)2Fe(SO4)2·6H2O (150 µM), L-ascorbate (2 mM), m6A-ssDNA substrate (100 µM), in 50 mM HEPES buffer, pH 7.5, and inhibitor at various concentrations (final DMSO concentration not more than 1% v/v of assay mix). The reaction was incubated at room temperature for 30 min, before 1:1 quenching with 20% v/v formic acid. 1 uL of the diluted assay mixture was then mixed with 1 uL of 3-hydroxpicolinic acid (3-HPA, the MALDI-TOF-MS matrix, Sigma-Aldrich) and spotted onto the MALDI-TOF-MS plate before analysis. The 3-HPA matrix was prepared by mixing 9 parts of 50 mg/mL 3-hydroxpicolinic acid in 50% MeCN/Milli-Q H2O with 1 part of 50 mg/mL ammonium citrate in Milli-Q H2O. […]

A word on the IC50: it is the concentration that inhibits the measured activity by half. The low end stands for greater potency in that assay, the high end for weaker potency in that assay.

T1 sequence (Q9GZT9 whole entry, the tested form may be a part): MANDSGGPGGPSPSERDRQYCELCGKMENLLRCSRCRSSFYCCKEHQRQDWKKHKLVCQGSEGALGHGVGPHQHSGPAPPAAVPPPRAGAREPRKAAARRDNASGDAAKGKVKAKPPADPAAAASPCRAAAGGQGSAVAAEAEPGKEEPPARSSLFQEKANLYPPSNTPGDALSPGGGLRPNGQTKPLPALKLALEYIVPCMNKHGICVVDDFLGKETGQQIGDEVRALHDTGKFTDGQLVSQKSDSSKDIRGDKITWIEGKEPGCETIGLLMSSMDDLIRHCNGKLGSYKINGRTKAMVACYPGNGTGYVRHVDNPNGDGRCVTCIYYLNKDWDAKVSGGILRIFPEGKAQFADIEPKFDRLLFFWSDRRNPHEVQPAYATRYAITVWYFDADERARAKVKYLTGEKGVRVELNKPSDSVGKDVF

Regarding `O=C(O)/C=C/C(=O)NNC(=O)c1cnccc1Cc1ccccc1` [Compound 12], the 50% inhibitory concentration (IC50) was > 100 µM.
